Holding throughout (assay): isoTOP-ABPP mapping of AEA-DA-modified peptides in Neuro2a cells
Common to all, as to assay type: cell-based

Experiment [1] concerns the target T1, AEA-DA-modified peptides in Neuro2a cells (Mus musculus, UniProt P70333).
T1 construct: endogenous in cells; host or cells: Neuro2a
Particulars: AEA-DA-modified peptide HNRNPH 2 P70333 50-69, SEQ ID NO 50; probe 100 μM, 12 replicates.

Experiment [2] deals with T2, AEA-DA-modified peptides in Neuro2a cells (Mus musculus, UniProt P21619).
T2 construct: endogenous in cells; host or cells: Neuro2a
T2 sequence (P21619 whole entry): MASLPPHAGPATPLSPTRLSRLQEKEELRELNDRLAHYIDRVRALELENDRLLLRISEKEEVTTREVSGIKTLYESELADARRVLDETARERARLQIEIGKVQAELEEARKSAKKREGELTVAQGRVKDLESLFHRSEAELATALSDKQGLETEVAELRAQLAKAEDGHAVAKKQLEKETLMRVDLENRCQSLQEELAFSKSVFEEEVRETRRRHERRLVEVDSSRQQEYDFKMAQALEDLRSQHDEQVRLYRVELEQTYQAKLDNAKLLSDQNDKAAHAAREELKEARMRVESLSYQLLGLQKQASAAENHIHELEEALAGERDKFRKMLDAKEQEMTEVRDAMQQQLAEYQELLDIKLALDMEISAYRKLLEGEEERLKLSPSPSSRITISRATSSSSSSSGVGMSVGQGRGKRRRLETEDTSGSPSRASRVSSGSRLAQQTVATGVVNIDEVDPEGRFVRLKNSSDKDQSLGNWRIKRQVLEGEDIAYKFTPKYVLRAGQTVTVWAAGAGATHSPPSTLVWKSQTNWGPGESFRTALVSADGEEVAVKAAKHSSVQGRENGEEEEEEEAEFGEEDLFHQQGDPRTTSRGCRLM
The settings on record: AEA-DA-modified peptide LMNB2 P21619 137-160, SEQ ID NO 57; probe 100 μM, 12 replicates.

Experiment [3] deals with T3, AEA-DA-modified peptides in Neuro2a cells (Mus musculus, UniProt Q99P72).
T3 construct: endogenous in cells; host or cells: Neuro2a
T3 sequence (Q99P72 whole entry): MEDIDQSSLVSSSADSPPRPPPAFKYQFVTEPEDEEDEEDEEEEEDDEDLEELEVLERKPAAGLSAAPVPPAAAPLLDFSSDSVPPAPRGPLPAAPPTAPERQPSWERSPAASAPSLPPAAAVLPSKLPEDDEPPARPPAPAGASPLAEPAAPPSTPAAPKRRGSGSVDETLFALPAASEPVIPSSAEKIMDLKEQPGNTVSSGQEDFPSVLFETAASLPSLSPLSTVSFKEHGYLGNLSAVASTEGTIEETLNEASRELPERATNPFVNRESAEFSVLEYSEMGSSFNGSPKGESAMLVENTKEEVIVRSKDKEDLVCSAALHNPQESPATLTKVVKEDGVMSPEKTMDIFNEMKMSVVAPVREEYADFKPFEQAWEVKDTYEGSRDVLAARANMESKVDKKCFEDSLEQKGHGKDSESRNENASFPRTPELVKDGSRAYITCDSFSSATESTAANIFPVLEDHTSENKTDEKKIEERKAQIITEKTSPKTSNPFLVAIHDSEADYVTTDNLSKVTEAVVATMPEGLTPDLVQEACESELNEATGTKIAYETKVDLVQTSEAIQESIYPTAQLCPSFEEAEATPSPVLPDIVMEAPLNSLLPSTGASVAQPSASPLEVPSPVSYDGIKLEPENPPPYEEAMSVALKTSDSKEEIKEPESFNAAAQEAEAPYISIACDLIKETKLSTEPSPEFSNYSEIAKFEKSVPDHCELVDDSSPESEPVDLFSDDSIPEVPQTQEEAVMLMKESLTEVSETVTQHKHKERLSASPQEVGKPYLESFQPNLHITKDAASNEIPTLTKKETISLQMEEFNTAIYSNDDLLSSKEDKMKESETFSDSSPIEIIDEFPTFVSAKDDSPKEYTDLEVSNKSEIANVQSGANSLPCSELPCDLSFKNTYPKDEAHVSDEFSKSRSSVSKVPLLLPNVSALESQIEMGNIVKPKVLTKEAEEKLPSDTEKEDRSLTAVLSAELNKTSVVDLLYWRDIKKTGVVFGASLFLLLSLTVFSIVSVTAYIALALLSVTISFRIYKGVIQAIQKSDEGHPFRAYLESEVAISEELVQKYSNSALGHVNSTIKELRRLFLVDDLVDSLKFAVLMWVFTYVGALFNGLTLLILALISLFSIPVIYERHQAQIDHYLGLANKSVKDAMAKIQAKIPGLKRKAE
Particulars: AEA-DA-modified peptide RTN4 Q99P72 1045-106, SEQ ID NO 94; probe 100 μM, 12 replicates.

Experiment [4] has as its target T4, AEA-DA-modified peptides in Neuro2a cells (Mus musculus, UniProt Q78ZA7).
T4 construct: endogenous in cells; host or cells: Neuro2a
Particulars: AEA-DA-modified peptide NAP1L4 Q78ZA7 84-94, SEQ ID NO 66; probe 100 μM, 12 replicates.

In experiment [5] the target is T5, AEA-DA-modified peptides in Neuro2a cells (Mus musculus, UniProt P48678).
T5 construct: endogenous in cells; host or cells: Neuro2a
T5 sequence (P48678 whole entry): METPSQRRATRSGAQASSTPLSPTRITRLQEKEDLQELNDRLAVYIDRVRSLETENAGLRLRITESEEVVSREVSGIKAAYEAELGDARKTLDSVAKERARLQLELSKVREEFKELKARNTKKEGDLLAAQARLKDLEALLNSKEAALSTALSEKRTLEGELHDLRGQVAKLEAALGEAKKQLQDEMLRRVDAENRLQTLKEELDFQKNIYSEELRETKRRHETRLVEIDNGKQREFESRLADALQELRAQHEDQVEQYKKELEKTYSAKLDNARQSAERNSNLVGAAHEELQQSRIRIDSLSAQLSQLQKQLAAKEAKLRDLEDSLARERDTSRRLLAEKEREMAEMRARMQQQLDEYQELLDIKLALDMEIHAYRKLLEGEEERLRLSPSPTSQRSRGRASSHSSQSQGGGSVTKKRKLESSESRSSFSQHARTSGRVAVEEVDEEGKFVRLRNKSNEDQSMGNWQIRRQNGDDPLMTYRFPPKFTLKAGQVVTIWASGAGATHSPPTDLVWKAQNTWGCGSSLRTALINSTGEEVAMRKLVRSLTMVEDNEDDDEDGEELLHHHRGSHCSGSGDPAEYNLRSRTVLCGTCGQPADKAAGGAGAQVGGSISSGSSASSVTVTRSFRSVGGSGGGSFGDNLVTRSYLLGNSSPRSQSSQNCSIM
The settings on record: AEA-DA-modified peptide LMNA P48678 281-297, SEQ ID NO 55; probe 100 μM, 12 replicates.

Experiment [6] addresses T6, AEA-DA-modified peptides in Neuro2a cells (Mus musculus, UniProt Q9Z2R6).
T6 construct: endogenous in cells; host or cells: Neuro2a
Particulars: AEA-DA-modified peptide UNC119 Q9Z2R6 131-140, SEQ ID NO 117; probe 100 μM, 12 replicates.

In experiment [7] the target is T7, AEA-DA-modified peptides in Neuro2a cells (Mus musculus, UniProt Q9D2R6).
T7 construct: endogenous in cells; host or cells: Neuro2a
T7 sequence (Q9D2R6 whole entry): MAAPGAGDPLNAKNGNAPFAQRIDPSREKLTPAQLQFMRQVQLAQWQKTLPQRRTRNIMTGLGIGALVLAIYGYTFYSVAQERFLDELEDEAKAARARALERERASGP
Particulars: AEA-DA-modified peptide CCDC56 Q9D2R6 84-94, SEQ ID NO 22; probe 100 μM, 12 replicates.

The target of experiment [8] is T8, AEA-DA-modified peptides in Neuro2a cells (Mus musculus, UniProt P84084).
T8 construct: endogenous in cells; host or cells: Neuro2a
T8 sequence (P84084 whole entry): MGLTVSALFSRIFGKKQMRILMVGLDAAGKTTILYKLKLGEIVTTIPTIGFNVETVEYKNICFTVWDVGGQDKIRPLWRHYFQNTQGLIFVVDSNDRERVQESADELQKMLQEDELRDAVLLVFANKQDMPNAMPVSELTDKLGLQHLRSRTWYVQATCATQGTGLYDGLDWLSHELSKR
Particulars: AEA-DA-modified peptide ARF5 P84084 39-60, SEQ ID NO 14; probe 100 μM, 12 replicates.

The target of experiment [9] is T9, AEA-DA-modified peptides in Neuro2a cells (Mus musculus, UniProt P19157).
T9 construct: endogenous in cells; host or cells: Neuro2a
T9 sequence (P19157 whole entry): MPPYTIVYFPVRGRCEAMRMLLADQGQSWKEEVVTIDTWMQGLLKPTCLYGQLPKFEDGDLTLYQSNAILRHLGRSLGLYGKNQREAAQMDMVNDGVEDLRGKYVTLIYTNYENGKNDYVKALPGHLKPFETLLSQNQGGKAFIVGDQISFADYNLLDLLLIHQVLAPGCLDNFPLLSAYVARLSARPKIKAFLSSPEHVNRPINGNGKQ
Particulars: AEA-DA-modified peptide GSTP1 P19157 104-117, SEQ ID NO 46; probe 100 μM, 12 replicates.

For experiment [10], the target named is T10, AEA-DA-modified peptides in Neuro2a cells (Mus musculus, UniProt Q8BMK4).
T10 construct: endogenous in cells; host or cells: Neuro2a
Particulars: AEA-DA-modified peptide CKAP4 Q8BMK4 292-307, SEQ ID NO 23; probe 100 μM, 12 replicates.

Experiment [11] addresses T11, AEA-DA-modified peptides in Neuro2a cells (Mus musculus, UniProt Q91V01).
T11 construct: endogenous in cells; host or cells: Neuro2a
Particulars: AEA-DA-modified peptide LPCAT3 Q91V01 18-31, SEQ ID NO 58; probe 100 μM, 12 replicates.

In experiment [12] the target is T12, AEA-DA-modified peptides in Neuro2a cells (Mus musculus, UniProt P70699).
T12 construct: endogenous in cells; host or cells: Neuro2a
T12 sequence (P70699 70-953): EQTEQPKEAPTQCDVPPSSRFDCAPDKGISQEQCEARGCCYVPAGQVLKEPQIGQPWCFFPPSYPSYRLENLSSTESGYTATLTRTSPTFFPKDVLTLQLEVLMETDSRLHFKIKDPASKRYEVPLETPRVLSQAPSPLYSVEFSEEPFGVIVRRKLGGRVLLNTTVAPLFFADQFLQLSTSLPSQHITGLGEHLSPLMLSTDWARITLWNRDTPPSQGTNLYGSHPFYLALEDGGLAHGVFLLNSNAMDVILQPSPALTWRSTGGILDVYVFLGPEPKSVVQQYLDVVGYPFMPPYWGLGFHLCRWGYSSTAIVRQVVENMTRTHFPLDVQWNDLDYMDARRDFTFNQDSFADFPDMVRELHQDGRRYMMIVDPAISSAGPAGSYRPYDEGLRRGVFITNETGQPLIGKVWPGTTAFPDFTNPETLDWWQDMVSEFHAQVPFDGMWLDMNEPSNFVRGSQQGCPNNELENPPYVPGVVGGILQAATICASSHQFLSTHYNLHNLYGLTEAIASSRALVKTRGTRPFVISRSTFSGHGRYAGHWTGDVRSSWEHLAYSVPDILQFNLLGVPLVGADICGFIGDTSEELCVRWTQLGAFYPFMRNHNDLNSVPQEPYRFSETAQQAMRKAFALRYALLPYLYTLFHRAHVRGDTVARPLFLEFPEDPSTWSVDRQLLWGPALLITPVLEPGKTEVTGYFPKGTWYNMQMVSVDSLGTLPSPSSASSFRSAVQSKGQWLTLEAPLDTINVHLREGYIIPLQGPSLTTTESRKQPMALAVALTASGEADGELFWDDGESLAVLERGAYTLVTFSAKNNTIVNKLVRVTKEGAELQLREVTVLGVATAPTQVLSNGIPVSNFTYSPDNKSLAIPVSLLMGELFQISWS
Particulars: AEA-DA-modified peptide GAA P70699 904-935, SEQ ID NO 41; probe 100 μM, 12 replicates.

This passage reports Times observed results from US10168342B2, “Lipid probes and uses thereof” (THE SCRIPPS RESEARCH INSTITUTE, priority 2015, dated 2019).

T4 sequence (Q78ZA7 whole entry): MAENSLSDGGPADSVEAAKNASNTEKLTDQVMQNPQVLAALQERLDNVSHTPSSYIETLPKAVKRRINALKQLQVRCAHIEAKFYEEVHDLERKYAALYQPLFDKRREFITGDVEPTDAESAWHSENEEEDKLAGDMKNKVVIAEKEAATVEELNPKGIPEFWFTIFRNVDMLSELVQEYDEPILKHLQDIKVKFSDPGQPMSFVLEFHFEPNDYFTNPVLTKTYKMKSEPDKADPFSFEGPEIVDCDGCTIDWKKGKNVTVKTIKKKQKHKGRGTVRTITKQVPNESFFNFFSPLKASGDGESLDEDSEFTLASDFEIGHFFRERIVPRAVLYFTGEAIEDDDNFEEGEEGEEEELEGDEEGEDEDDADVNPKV
T1 sequence (P70333 whole entry): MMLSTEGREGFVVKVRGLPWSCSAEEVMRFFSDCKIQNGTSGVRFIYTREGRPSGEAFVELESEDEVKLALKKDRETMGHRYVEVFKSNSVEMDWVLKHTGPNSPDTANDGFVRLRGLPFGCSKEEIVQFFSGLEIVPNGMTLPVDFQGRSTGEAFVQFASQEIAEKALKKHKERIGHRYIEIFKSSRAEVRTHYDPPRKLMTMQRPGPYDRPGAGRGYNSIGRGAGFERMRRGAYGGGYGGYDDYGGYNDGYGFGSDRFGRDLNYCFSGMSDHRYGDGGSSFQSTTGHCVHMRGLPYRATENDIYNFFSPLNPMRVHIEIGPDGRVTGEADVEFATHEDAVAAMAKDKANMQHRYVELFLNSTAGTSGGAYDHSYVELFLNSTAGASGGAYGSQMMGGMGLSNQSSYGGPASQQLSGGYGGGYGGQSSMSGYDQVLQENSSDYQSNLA

As to `C#CCCCC1(CC/C=C\C/C=C\C/C=C\CCCC(=O)NCCO)N=N1` [AEA-DA, (5Z,8Z,11Z)-N-(2-hydroxyethyl)-14-(3-(pent-4-yn-1-yl)-3H-diazirin-3-yl)tetradeca-5,8,11-trienamide], the Times observed in experiment [1] worked out at 9; in [2] it was 5; in experiment [3], 7; in experiment [4], 3; in experiment [5] it was 2; in experiment [6], 3. In addition, the Times observed stood at 2 in [7]; 9 in experiment [8]; 4 in experiment [9]; 7 in experiment [10]; 2 in [11]; 11 in experiment [12].
